From patent US20110097274A1, “Carbon-11 and fluorine-18 labeled radioligands for positron emission tomography (PET) imaging for the brain serotonin transporters” (priority 2002, published 2011)

Columns and labels:
SERT [1] = details: literature; cited from earlier work
[2] = baboons (Acton et al., 1999a); cited from earlier work
[3] = Biodistribution of labeled radioligands in male Sprague-Dawley rats; format: in vivo; details: mean ± SD, n = 3
Source text: Appropriately labeled compounds were studied in animals to assess their binding characteristics in the brain. Procedures for these biodistribution studies are as follows. […] The brain regions (cerebellum, hippocampus, striatum, frontal cortex, thalamus and hypothalamus), along with samples of blood and part of the tail, were removed, weighed, and counted in a Packard Cobra II gamma counter. The percent injected dose (% ID) of the decay- and tail-corrected activity in the brain regions and blood were calculated based upon C-11 standards prepared from the injection solution, and the % ID/g were calculated using the tissue weights.

[4] = Experiment 5: plasma clearance of ^11C and ^18F labeled AFM, AFA, AFE in one baboon; format: in vivo; details: one adult male baboon, n = 1 to 4 scans
Description: (§1) General scanning methods were as described in Huang et al. (2002). Arterial input function was measured and corrected for metabolites.

SERT [5] = details: same baboon, one tissue compartment model
Description: The animal was then injected with [^18F]AFM (2.60 mCi, 425 Ci/mmol, 1.51 μg) and scanned for 90 minutes. Analysis of the input function and brain uptake was performed as described in the previous section. […] Arterial activity was corrected for parent fraction to form the input function.
Data were analyzed with a one tissue compartment model.

SERT [6] = test: Experiment 5: PET brain imaging of ^11C and ^18F labeled AFM, AFA, AFE in one baboon; format: in vivo; details: one adult male baboon, n = 1 to 4 scans, two-compartment model
Description: as §1
Activity distributed in the brain in accordance to the known density distribution pattern of SERT (Laruelle et al., 1988). […] Data were analyzed with a two-compartment model, using the metabolite-corrected arterial time-activity curve as input function. This analysis provided the regional distribution volumes (VT, mL/g).
The nonspecific distribution volume, measured as the distribution volume of the cerebellum (a region with negligible SERT density) was in a similar range for all tracers (10 to 30 mL/g, Table 16).
The specific to nonspecific partition coefficient, V3″, was calculated as the ratio of VT in the region of interest (ROI) to cerebellum VT minus one. V3″ provides a measure related to receptor parameters as follows: […]

[7] = Experiment 4: plasma analysis, [^11C]AFM and [^18F]AFM in the same baboon
Description: The animal was then injected with [^18F]AFM (2.60 mCi, 425 Ci/mmol, 1.51 μg) and scanned for 90 minutes. […] Arterial activity was corrected for parent fraction to form the input function.

CN(C)Cc1ccccc1Sc1ccc([123I])cc1N [[^123I]ADAM]
Target to background ratio in vivo compared to [^123I]IDAM (SERT [1]): four times higher
VT CER measured with SPECT [2]: 2.25 ± 0.46 mL/g

CN(C)Cc1ccccc1Sc1ccc(C[18F])cc1N [[^18F]AFM, [^18F]2-[2-(Dimethylaminomethyl)phenylthio]-5-fluoromethylphenylamine]
% ID/g Blood ([3]; 10 min post-injection): 0.37 ± 0.04 % ID/g
% ID/g Cerebellum ([3]; 10 min post-injection): 0.33 ± 0.04 % ID/g
% ID/g Frontal Ctx. ([3]; 10 min post-injection): 0.82 ± 0.14 % ID/g
% ID/g Hippocamp. ([3]; 10 min post-injection): 0.51 ± 0.07 % ID/g
% ID/g Hypothal. ([3]; 10 min post-injection): 0.70 ± 0.08 % ID/g
% ID/g Striatum ([3]; 10 min post-injection): 0.69 ± 0.15 % ID/g
% ID/g Thalamus ([3]; 10 min post-injection): 0.72 ± 0.13 % ID/g
% ID/g Blood ([3]; 30 min post-injection): 0.28 ± 0.02 % ID/g
% ID/g Cerebellum ([3]; 30 min post-injection): 0.23 ± 0.03 % ID/g
% ID/g Frontal Ctx. ([3]; 30 min post-injection): 0.99 ± 0.20 % ID/g
% ID/g Hippocamp. ([3]; 30 min post-injection): 0.64 ± 0.12 % ID/g
% ID/g Hypothal. ([3]; 30 min post-injection): 0.82 ± 0.16 % ID/g
% ID/g Striatum ([3]; 30 min post-injection): 0.83 ± 0.12 % ID/g
% ID/g Thalamus ([3]; 30 min post-injection): 0.88 ± 0.06 % ID/g
% ID/g Blood ([3]; 60 min post-injection): 0.10 ± 0.04 % ID/g
% ID/g Cerebellum ([3]; 60 min post-injection): 0.13 ± 0.02 % ID/g
% ID/g Frontal Ctx. ([3]; 60 min post-injection): 0.71 ± 0.18 % ID/g
% ID/g Hippocamp. ([3]; 60 min post-injection): 0.45 ± 0.09 % ID/g
% ID/g Hypothal. ([3]; 60 min post-injection): 0.71 ± 0.14 % ID/g
% ID/g Striatum ([3]; 60 min post-injection): 0.57 ± 0.12 % ID/g
% ID/g Thalamus ([3]; 60 min post-injection): 0.67 ± 0.15 % ID/g
% ID/g Blood ([3]; 90 min post-injection): 0.08 ± 0.03 % ID/g
% ID/g Cerebellum ([3]; 90 min post-injection): 0.08 ± 0.01 % ID/g
% ID/g Frontal Ctx. ([3]; 90 min post-injection): 0.52 ± 0.19 % ID/g
% ID/g Hippocamp. ([3]; 90 min post-injection): 0.36 ± 0.12 % ID/g
% ID/g Hypothal. ([3]; 90 min post-injection): 0.58 ± 0.13 % ID/g
% ID/g Striatum ([3]; 90 min post-injection): 0.45 ± 0.17 % ID/g
% ID/g Thalamus ([3]; 90 min post-injection): 0.50 ± 0.15 % ID/g
% ID/g Blood ([3]; 120 min post-injection): 0.04 ± 0.00 % ID/g
% ID/g Cerebellum ([3]; 120 min post-injection): 0.07 ± 0.02 % ID/g
% ID/g Frontal Ctx. ([3]; 120 min post-injection): 0.38 ± 0.09 % ID/g
% ID/g Hippocamp. ([3]; 120 min post-injection): 0.28 ± 0.05 % ID/g
% ID/g Hypothal. ([3]; 120 min post-injection): 0.55 ± 0.08 % ID/g
% ID/g Striatum ([3]; 120 min post-injection): 0.42 ± 0.10 % ID/g
% ID/g Thalamus ([3]; 120 min post-injection): 0.56 ± 0.10 % ID/g
Clearance [4]: 40 ± 1 L/h
Thalamus V3″ (SERT [5]): 2.27
Cerebellum V (nonspecific distribution volume) (SERT [6]): 23 ± 6 mL/g
Clearance of the parent compound [7]: 54 L/h
Percent plasma activity corresponding to the parent compound ([7]; 2 minutes): 63.5%
Percent plasma activity corresponding to the parent compound ([7]; 4 minutes): 40.0%
Percent plasma activity corresponding to the parent compound ([7]; 12 minutes): 21.3%
Percent plasma activity corresponding to the parent compound ([7]; 30 minutes): 8.7%
Percent plasma activity corresponding to the parent compound ([7]; 60 minutes): 5.3%
Percent plasma activity corresponding to the parent compound ([7]; 90 minutes): 4.6%
